From patent publication US10219528B2 (Zinpro Corporation, priority 2016, dated 2019) come the findings set out here.

The nature of data set [1]: Solubility test of folate precipitates suspended in water at pH 7.0, filtered, insoluble solid weighed. The data set is classed as physicochemical. An excerpt:
In the parent application is was noticed that when soluble metal salts were mixed with folic acid there would be a precipitate forming after the addition of the metal salt. This precipitate was isolated and its solubility measured. According to the following procedure: The precipitates were suspended in water and the pH was adjusted to 7.0 with dilute HCl. […] The solids were dried and weighed to determine the mass of insoluble product. Very similar molar amounts of folic acid are used in this procedure.

The nature of data set [2]: Sheep serum folic acid concentrations after feeding test articles. The text has this: The animals were separated into groups and housed in a barn with access to a pasture. The dosing regime was as follows. […] The sheep were fed the test feeds for fourteen (14) days.
Example 22 is a sheep study using the protocol of Example 20 but with the Mn and iron mixtures of Example 5 and 7, respectively. […] In this test the ewes were fed the concentrate metal folate mixture dried without any carrier but mixed on ground corn for feeding.
The liquid mixtures were then sprayed directly on ground corn.

[3] abbreviates: suspended in water at pH 7.0, stirred, filtered, solid dried and weighed.

For Zinc folate, the Insoluble % in data set [1] (setting [3]) is 99%; in data set [1] (suspended in water at pH 7.0, stirred, filtered, solid dried and weighed, listed as Zinc folate), 99%.
Turning to Iron folate, the “Insoluble Mass” value in data set [1] (suspended in 100 mL water, pH adjusted to 7.0, stirred, filtered, solid dried and weighed, about 3 g folate equivalents (6.8 mmols)) is 3.74 g. For the same compound, the Insoluble % in data set [1] (setting [3]) is given as 96%; in data set [1] (suspended in water at pH 7.0, stirred, filtered, solid dried and weighed, listed as Iron folate), 96%.
`Nc1nc2ncc(CNc3ccc(C(=O)N[C@@H](CCC(=O)O)C(=O)O)cc3)nc2c(=O)[nH]1` [Folic Acid, folic acid, reference compound] had an Insoluble % in data set [1] (15 min, pH 7) of 0.33%. The “solubility at pH of 7” value in data set [1] (pH 7) was “soluble”.
On to Zinc Folate Mixture [Example 1], for which the “serum folic acid concentrations” value in data set [2] (30 mg folic acid equivalent per head per day mixed with ground corn, 14 days, pre vs post treatment (FIGS. 1-4), mean or median) is listed as “increased the greatest”. In addition, the “blood serum levels of folic acid compared to folic acid alone” value in data set [2] (comparison with folic acid alone) is listed as “performed better than folic acid alone”.
